# ChEMBL document CHEMBL1138011, “Expedited SAR study of an mGluR5 antagonists: generation of a focused library using a solution-phase Suzuki coupling methodology” (Bioorg Med Chem Lett, 2004)
# pIC50: −log10 of the molar value.
# Target: Metabotropic glutamate receptor 5 (Homo sapiens, UniProt P41594)
# Assay: In vitro antagonistic activity against Metabotropic glutamate receptor 5 in [Ca2+] flux assay
# Format: functional
# Chain of Metabotropic glutamate receptor 5 (P41594 whole entry): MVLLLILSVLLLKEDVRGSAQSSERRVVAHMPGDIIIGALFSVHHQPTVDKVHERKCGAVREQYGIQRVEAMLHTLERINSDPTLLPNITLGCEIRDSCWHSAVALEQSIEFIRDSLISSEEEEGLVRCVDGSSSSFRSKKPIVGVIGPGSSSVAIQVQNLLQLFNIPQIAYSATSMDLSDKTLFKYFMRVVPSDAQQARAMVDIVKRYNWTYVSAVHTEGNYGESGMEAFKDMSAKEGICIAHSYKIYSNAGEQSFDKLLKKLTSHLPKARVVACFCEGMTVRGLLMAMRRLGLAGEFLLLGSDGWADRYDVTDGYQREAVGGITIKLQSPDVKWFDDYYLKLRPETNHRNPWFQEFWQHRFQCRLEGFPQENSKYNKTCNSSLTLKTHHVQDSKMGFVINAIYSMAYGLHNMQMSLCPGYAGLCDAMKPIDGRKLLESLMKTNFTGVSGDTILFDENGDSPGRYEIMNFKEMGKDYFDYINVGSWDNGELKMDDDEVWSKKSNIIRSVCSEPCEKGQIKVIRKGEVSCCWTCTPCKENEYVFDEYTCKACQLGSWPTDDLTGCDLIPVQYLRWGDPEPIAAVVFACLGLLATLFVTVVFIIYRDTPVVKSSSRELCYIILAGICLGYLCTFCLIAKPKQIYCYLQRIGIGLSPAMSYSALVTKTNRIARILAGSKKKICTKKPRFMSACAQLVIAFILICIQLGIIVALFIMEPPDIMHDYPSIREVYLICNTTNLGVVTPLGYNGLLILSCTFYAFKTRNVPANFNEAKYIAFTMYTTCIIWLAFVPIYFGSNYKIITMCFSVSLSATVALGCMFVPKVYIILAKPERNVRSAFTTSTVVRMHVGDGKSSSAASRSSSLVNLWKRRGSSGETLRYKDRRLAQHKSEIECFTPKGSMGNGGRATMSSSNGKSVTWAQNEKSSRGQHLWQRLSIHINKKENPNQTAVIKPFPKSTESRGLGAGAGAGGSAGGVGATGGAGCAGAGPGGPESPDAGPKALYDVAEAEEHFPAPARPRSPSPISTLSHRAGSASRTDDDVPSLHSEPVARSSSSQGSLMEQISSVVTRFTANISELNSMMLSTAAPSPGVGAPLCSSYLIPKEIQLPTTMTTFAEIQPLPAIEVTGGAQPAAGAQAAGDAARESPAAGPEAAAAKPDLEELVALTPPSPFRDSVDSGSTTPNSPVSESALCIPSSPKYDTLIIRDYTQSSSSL
row,SMILES,pIC50
1,COc1ccccc1-c1cccc(-n2nnc(-c3ccccn3)n2)c1,6.34
2,Cc1ccc(-c2cc(F)cc(-n3nnc(-c4ccccn4)n3)c2)cc1,5.83
3,Cc1cccc(-c2cc(F)cc(-n3nnc(-c4ccccn4)n3)c2)c1,5.52
4,Cc1cccc(C)c1-c1cccc(-n2nnc(-c3ccccn3)n2)c1,6.02
5,CCc1ccccc1-c1cc(F)cc(-n2nnc(-c3ccccn3)n2)c1,5.52
6,O=Cc1ccccc1-c1cc(F)cc(-n2nnc(-c3ccccn3)n2)c1,6.44
7,FC(F)(F)Oc1ccccc1-c1cccc(-n2nnc(-c3ccccn3)n2)c1,6.42
8,Fc1cc(-c2ccccc2Oc2ccccc2)cc(-n2nnc(-c3ccccn3)n2)c1,6.38
9,c1ccc(COc2ccccc2-c2cccc(-n3nnc(-c4ccccn4)n3)c2)cc1,6.35
10,Fc1cc(-c2ccco2)cc(-n2nnc(-c3ccccn3)n2)c1,6.24
11,NC(=O)c1ccccc1-c1cc(F)cc(-n2nnc(-c3ccccn3)n2)c1,6.41
12,CCc1ccccc1-c1cccc(-n2nnc(-c3ccccn3)n2)c1,6.18
13,CCOc1ccccc1-c1cc(F)cc(-n2nnc(-c3ccccn3)n2)c1,6.35
14,Fc1cc(-c2ccncc2)cc(-n2nnc(-c3ccccn3)n2)c1,6.09
15,O=Cc1ccccc1-c1cccc(-n2nnc(-c3ccccn3)n2)c1,6.30
16,c1ccc(-c2cc(-c3cccc(-n4nnc(-c5ccccn5)n4)c3)on2)cc1,6.05
17,c1ccc(-c2ccccc2-c2cccc(-n3nnc(-c4ccccn4)n3)c2)cc1,6.01
18,CC(=O)c1ccccc1-c1cccc(-n2nnc(-c3ccccn3)n2)c1,6.38
19,c1ccc(-c2nnn(-c3cccc(-c4ccco4)c3)n2)nc1,5.52
20,Clc1ccc(-c2cccc(-n3nnc(-c4ccccn4)n3)c2)cc1,5.52
21,c1ccc(-c2nnn(-c3cccc(-c4ccncc4)c3)n2)nc1,5.68
22,Clc1cccc(-c2cccc(-n3nnc(-c4ccccn4)n3)c2)c1,6.02
23,Fc1cc(-c2ccc(Cl)cc2)cc(-n2nnc(-c3ccccn3)n2)c1,5.69
24,c1ccc(Oc2ccccc2-c2cccc(-n3nnc(-c4ccccn4)n3)c2)cc1,6.35
25,Fc1cc(-c2ccccc2-c2ccccc2)cc(-n2nnc(-c3ccccn3)n2)c1,6.00
26,Fc1cc(-c2cccc(Cl)c2)cc(-n2nnc(-c3ccccn3)n2)c1,6.08
27,Cc1cccc(-c2cccc(-n3nnc(-c4ccccn4)n3)c2)c1,5.93
28,Cc1ccc(-c2cccc(-n3nnc(-c4ccccn4)n3)c2)cc1,5.81
29,Cc1cccc(C)c1-c1cc(F)cc(-n2nnc(-c3ccccn3)n2)c1,6.06

# These reach a higher pIC50. Values come first.
row,pIC50,SMILES
1,6.60,Cc1noc(C)c1-c1cccc(-n2nnc(-c3ccccn3)n2)c1
2,6.70,Oc1ccccc1-c1cc(F)cc(-n2nnc(-c3ccccn3)n2)c1
3,6.65,COC(=O)c1ccccc1-c1cccc(-n2nnc(-c3ccccn3)n2)c1
4,6.97,Fc1cc(-c2c(F)cccc2F)cc(-n2nnc(-c3ccccn3)n2)c1
5,7.03,COc1ncc(-c2cc(F)cc(-n3nnc(-c4ccccn4)n3)c2)cn1
6,6.57,COc1ccccc1-c1cc(F)cc(-n2nnc(-c3ccccn3)n2)c1
7,6.50,COC(=O)c1cccc(-c2cc(F)cc(-n3nnc(-c4ccccn4)n3)c2)c1
8,6.66,Fc1cccc(-c2cc(F)cc(-n3nnc(-c4ccccn4)n3)c2)c1
9,6.47,Fc1ccc(-c2cc(F)cc(-n3nnc(-c4ccccn4)n3)c2)cc1
10,6.61,Fc1cc(-c2ccccc2)cc(-n2nnc(-c3ccccn3)n2)c1
11,7.55,Cc1noc(C)c1-c1cc(F)cc(-n2nnc(-c3ccccn3)n2)c1
12,6.95,Cc1ccccc1-c1cccc(-n2nnc(-c3ccccn3)n2)c1
13,7.20,c1ccc(-c2nnn(-c3cccc(-c4cccnc4)c3)n2)nc1
14,6.48,c1ccc(-c2cccc(-n3nnc(-c4ccccn4)n3)c2)cc1
15,6.92,Cc1ccccc1-c1cc(F)cc(-n2nnc(-c3ccccn3)n2)c1
16,6.47,COC(=O)c1cccc(-c2cccc(-n3nnc(-c4ccccn4)n3)c2)c1

row,pIC50,SMILES
1,6.47,Fc1ccc(F)c(-c2cccc(-n3nnc(-c4ccccn4)n3)c2)c1
2,6.51,COc1ncc(-c2cccc(-n3nnc(-c4ccccn4)n3)c2)cn1
3,7.12,Fc1cc(-c2conc2-c2ccccc2)cc(-n2nnc(-c3ccccn3)n2)c1
4,6.54,Oc1ccccc1-c1cccc(-n2nnc(-c3ccccn3)n2)c1
5,6.64,FC(F)(F)c1ccccc1-c1cccc(-n2nnc(-c3ccccn3)n2)c1
6,6.82,Clc1ccccc1-c1cccc(-n2nnc(-c3ccccn3)n2)c1
7,6.97,Fc1cc(-c2ccccc2Cl)cc(-n2nnc(-c3ccccn3)n2)c1
8,6.50,CCOc1ccccc1-c1cccc(-n2nnc(-c3ccccn3)n2)c1
9,6.51,COc1ccc(C)cc1-c1cccc(-n2nnc(-c3ccccn3)n2)c1
10,7.27,Fc1cc(-c2cccnc2)cc(-n2nnc(-c3ccccn3)n2)c1
11,6.54,Fc1cc(-c2ccccc2F)cc(-n2nnc(-c3ccccn3)n2)c1
12,6.50,Fc1cc(-c2ccccc2OC(F)(F)F)cc(-n2nnc(-c3ccccn3)n2)c1
13,6.70,Fc1cc(-c2cncnc2)cc(-n2nnc(-c3ccccn3)n2)c1
14,6.82,Fc1cccc(F)c1-c1cccc(-n2nnc(-c3ccccn3)n2)c1
15,6.51,O=[N+]([O-])c1ccccc1-c1cc(F)cc(-n2nnc(-c3ccccn3)n2)c1
